Where two headings read alike, the source gives them in different places.
Key:
MycC = biological target: T1, MycC (Homo sapiens, UniProt P01106); assay: Degradation of MycC protein in L363 cells, JESS/Western blot of lysates; format: cell-based; conditions: L-363, 24 h; for Dmax at 0.5 µM: read-out: % Degradation of MycC (L-363) 24 h, 0.5 μM; for Dmax at 1 µM: read-out: % Degradation of MycC (L-363) 24 h, 1 μM; for Dmax at 3 µM: read-out: % Degradation of MycC (L-363) 24 h, 3 μM; for Dmax at 6 µM: read-out: % Degradation of MycC (L-363) 24 h, 6 μM
T1 construct: endogenous in cells; host or cells: L363
In short: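 L363 suspension cells were seeded at 1E6 cells per well and exposed to compound (stock 10 mM in DMSO) for 24 hrs. Cells were collected, spun down, rinsed with PBS, lysed in RIPA buffer cocktail on ice, clarified and kept at −80 degrees. Lysate protein was quantified by BCA, and c-myc was measured on JESS by chemiluminescence with tubulin and GAPDH loading controls in the NIR channel.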

MycN = biological target: T2, MycN (Homo sapiens, UniProt P04198); assay: Degradation of MycN protein in SK-N-BE(2) cells, JESS/Western blot of lysates; format: cell-based; conditions: SKNBE2, 24 h; for Dmax at 0.5 µM: read-out: % Degradation of MycN (SKNBE2) 24 h, 0.5 μM; for Dmax at 1 µM: read-out: % Degradation of MycN (SKNBE2) 24 h, 1 μM; for Dmax at 3 µM: read-out: % Degradation of MycN (SKNBE2) 24 h, 3 μM; for Dmax at 6 µM: read-out: % Degradation of MycN (SKNBE2) 24 h, 6 μM
T2 construct: endogenous in cells; host or cells: SK-N-BE(2)
T2 sequence (P04198 1-464): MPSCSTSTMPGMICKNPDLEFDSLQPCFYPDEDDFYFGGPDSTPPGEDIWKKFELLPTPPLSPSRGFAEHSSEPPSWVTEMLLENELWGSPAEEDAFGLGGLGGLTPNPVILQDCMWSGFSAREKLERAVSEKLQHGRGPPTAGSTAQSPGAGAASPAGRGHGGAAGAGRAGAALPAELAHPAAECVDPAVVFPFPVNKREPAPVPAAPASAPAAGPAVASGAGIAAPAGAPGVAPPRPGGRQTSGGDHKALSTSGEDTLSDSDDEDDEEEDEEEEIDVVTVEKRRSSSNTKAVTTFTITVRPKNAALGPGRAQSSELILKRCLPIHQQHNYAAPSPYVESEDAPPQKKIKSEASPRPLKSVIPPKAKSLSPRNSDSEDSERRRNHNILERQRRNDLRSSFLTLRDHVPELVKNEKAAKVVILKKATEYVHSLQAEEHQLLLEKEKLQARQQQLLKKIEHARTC
In short: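 SK-N-BE(2) adherent cells (5E5 per well of a 6 well dish) were grown 24 hrs, then exposed to compounds diluted 1 in 20 in media, with DMSO controls, for 24 hrs. Cells were scraped, pelleted, PBS washed and lysed in RIPA buffer cocktail; after BCA protein quantitation, n-myc was detected by chemiluminescence on JESS/Western blot with tubulin and GAPDH loading controls read in the near infra red channel.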

T1 sequence (P01106 whole entry): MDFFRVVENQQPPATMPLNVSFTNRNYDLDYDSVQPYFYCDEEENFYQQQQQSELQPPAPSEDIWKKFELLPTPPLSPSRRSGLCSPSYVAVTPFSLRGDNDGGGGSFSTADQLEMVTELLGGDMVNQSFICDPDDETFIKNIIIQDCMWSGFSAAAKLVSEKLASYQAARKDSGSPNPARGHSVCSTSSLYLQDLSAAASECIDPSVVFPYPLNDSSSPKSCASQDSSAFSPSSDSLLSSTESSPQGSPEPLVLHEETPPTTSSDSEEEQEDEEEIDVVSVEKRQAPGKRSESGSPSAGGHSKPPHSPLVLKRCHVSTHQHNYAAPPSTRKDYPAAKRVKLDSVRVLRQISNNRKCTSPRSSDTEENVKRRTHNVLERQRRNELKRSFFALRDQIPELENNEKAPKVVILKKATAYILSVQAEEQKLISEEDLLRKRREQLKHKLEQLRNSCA

Structure (SMILES)	Dmax at 0.5 µM (MycC; L-363 cells, 24 h) [%]	Dmax at 1 µM (MycC; L-363 cells, 24 h, 1 μM) [%]	Dmax at 3 µM (MycC; L-363 cells, 24 h, 3 μM) [%]	Dmax at 6 µM (MycC; L-363 cells, 24 h, 6 μM) [%]	Dmax at 0.5 µM (MycN; SKNBE2 cells, 24 h, 0.5 μM) [%]	Dmax at 1 µM (MycN; SKNBE2 cells, 24 h, 1 μM) [%]	Dmax at 3 µM (MycN; SKNBE2 cells, 24 h, 3 μM) [%]	Dmax at 6 µM (MycN; SKNBE2 cells, 24 h, 6 μM) [%]	Dmax at 1 µM (MycC) [%]	Dmax at 3 µM (MycC) [%]	Dmax at 6 µM (MycC) [%]	Dmax at 0.5 µM (MycN) [%]	Dmax at 1 µM (MycN) [%]	Dmax at 3 µM (MycN) [%]	Dmax at 6 µM (MycN) [%]
CNCC12CCC(C1)N(c1nccc(Nc3cc(C4CCCC4)[nH]n3)n1)C2 (centres unmarked) [Compound 114]	80 to 100	80 to 100	80 to 100	80 to 100	80 to 100	80 to 100	80 to 100	80 to 100	–	–	–	–	–	–	–
O=S1(=O)CCN(CC23CC(C2)N(c2nccc(Nc4cc(C5CCCC5)[nH]n4)n2)C3)CC1 [Compound 73, N-(5-Cyclopentyl-1H-pyrazol-3-yl)-2-[4-[(1,1-dioxo-1,4-thiazinan-4-yl)methyl]-2-azabicyclo[2.1.1]hexan-2-yl]pyrimidin-4-amine]	–	–	20 to 49	80 to 100	< 20	20 to 49	50 to 79	80 to 100	–	–	–	–	–	–	–
NCC1CN(c2nccc(Nc3cc(C4CC4)[nH]n3)n2)CC(F)(F)C1 (centres unmarked) [Compound 121, 2-[5-(Aminomethyl)-3,3-difluoro-1-piperidyl]-N-(5-cyclopropyl-1H-pyrazol-3-yl)pyrimidin-4-amine]	–	–	–	–	–	–	–	–	80 to 100	80 to 100	80 to 100	50 to 79	50 to 79	80 to 100	80 to 100
NC[C@H]1CCCN(c2nccc(Nc3cc(C4CC4)[nH]n3)n2)C1 [Compound 29, 2-[(3R)-3-(Aminomethyl)-1-piperidyl]-N-(5-cyclopropyl-1H-pyrazol-3-yl)pyrimidin-4-amine]	20 to 49	50 to 79	80 to 100	80 to 100	80 to 100	80 to 100	80 to 100	80 to 100	–	–	–	–	–	–	–
c1cc(Nc2cc(C3CC3)[nH]n2)nc(N2C[C@H]3CN[C@H]3C2)n1 [Compound 53, N-(5-Cyclopropyl-1H-pyrazol-3-yl)-2-[(1R,5R)-3,6-diazabicyclo[3.2.0]heptan-3-yl]pyrimidin-4-amine]	–	–	20 to 49	< 20	–	–	–	< 20	–	–	–	–	–	–	–
CN1CC2(CCN(c3nccc(Nc4cc(C5CCCC5)[nH]n4)n3)CC2)C1 [Compound 86]	–	–	80 to 100	80 to 100	20 to 49	20 to 49	80 to 100	80 to 100	–	–	–	–	–	–	–
CN(C)C[C@H]1CCN(c2nccc(Nc3cc(C4CCCC4)[nH]n3)n2)C1 [Compound 111, N-(5-Cyclopentyl-1H-pyrazol-3-yl)-2-[(3R)-3-[(dimethylamino)methyl]pyrrolidin-1-yl]pyrimidin-4-amine]	< 20	< 20	< 20	< 20	< 20	< 20	< 20	50 to 79	–	–	–	–	–	–	–
c1cc(Nc2cc(C3CC3)[nH]n2)nc(N2CC3(CCNC3)C2)n1 [Compound 25, N-(5-cyclopropyl-1H-pyrazol-3-yl)-2-(2,7-diazaspiro[3.4]octan-2-yl)pyrimidin-4-amine]	< 20	< 20	–	–	20 to 49	20 to 49	20 to 49	20 to 49	–	–	–	–	–	–	–
NC[C@@H]1CCCN(c2nccc(Nc3cc(C4CC4)[nH]n3)n2)C1 [Compound 24, 2-[(3S)-3-(aminomethyl)-1-piperidyl]-N-(5-cyclopropyl-1H-pyrazol-3-yl)pyrimidin-4-amine]	< 20	–	80 to 100	80 to 100	20 to 49	50 to 79	80 to 100	80 to 100	–	–	–	–	–	–	–
CNCC12CC(C1)N(c1nccc(Nc3cc(C4CC4)[nH]n3)n1)C2 [Compound 14, N-(5-cyclopropyl-1H-pyrazol-3-yl)-2-(4-((methylamino)methyl)-2-azabicyclo[2.1.1]hexan-2-yl)pyrimidin-4-amine]	20 to 49	80 to 100	80 to 100	80 to 100	< 20	20 to 49	20 to 49	80 to 100	–	–	–	–	–	–	–
CNC[C@H]1CCCN(c2nccc(Nc3cc(C4CC4)[nH]n3)n2)C1 [Compound 16, N-(5-Cyclopropyl-1H-pyrazol-3-yl)-2-[(3R)-3-(methylaminomethyl)-1-piperidyl]pyrimidin-4-amine]	< 20	< 20	< 20	< 20	< 20	80 to 100	80 to 100	80 to 100	–	–	–	–	–	–	–
c1cc(Nc2cc(C3CC3)[nH]n2)nc(N2C[C@H]3CNC[C@H]3C2)n1 [Compound 18, N-(5-Cyclopropyl-1H-pyrazol-3-yl)-2-[rac-(3aR,6aS)-2,3,3a,4,6,6a-hexahydro-1H-pyrolo[3,4-c]pyrrol-5-yl]pyrimidin-4-amine]	< 20	< 20	< 20	20 to 49	20 to 49	50 to 79	80 to 100	80 to 100	–	–	–	–	–	–	–
c1cc(Nc2cc(C3CC3)[nH]n2)nc(N2CC3(CCCNC3)C2)n1 [Compound 105, N-(5-Cyclopropyl-1H-pyrazol-3-yl)-2-(2,8-diazaspiro[3.5]nonan-2-yl)pyrimidin-4-amine]	–	–	< 20	80 to 100	< 20	< 20	< 20	80 to 100	–	–	–	–	–	–	–
NCC12CC(C1)N(c1nccc(Nc3cc(C4CCCC4)[nH]n3)n1)C2 [Compound 66, 2-[4-(aminomethyl)-2-azabicyclo[2.1.1]hexan-2-yl]-N-(5-cyclopentyl-1H-pyrazol-3-yl)pyrimidin-4-amine]	< 20	–	80 to 100	80 to 100	–	80 to 100	80 to 100	80 to 100	–	–	–	–	–	–	–
